In patent publication US20150065423A1, “RAPID ACTING INJECTABLE FORMULATIONS” (Perosphere, Inc., priority 2013, published 2015):
≈ marks a conversion by molar mass, not a printed value.

Assays:
[1] = "it is believed"; cited from earlier work
[2] = Soluble concentration of nitroglycerin measured by HPLC; conditions: aqueous with cosolvent or surfactant or cyclodextrin
Excerpt: The resultant suspension was centrifuged and the supernatant withdrawn to become the test article. […] The results are depicted in FIG. 1.

Compound: O=[N+]([O-])OCC(CO[N+](=O)[O-])O[N+](=O)[O-] [nitroglycerin]
- water solubility [1]: < 1000 µg/mL
- solubility ([2]; soluble concentration of nitroglycerin, in presence of 5% aqueous solution of Pluronic F127): ~3800 µg/mL
- solubility ([2]; soluble concentration of nitroglycerin, in presence of 5% aqueous solution of Tween 80): ~4500 µg/mL
- solubility ([2]; thermodynamic from solid, final concentration of nitroglycerin (solubility limit)): ~1000 µg/mL (≈ 4.4 mM)
- solubility ([2]; thermodynamic from solid, soluble concentration of nitroglycerin, in presence of 20% aqueous solution of PEG3350): 2000 µg/mL
